Source: patent US20230027985A1, “SUBSTITUTED HYDANTOINAMIDES AS ADAMTS7 ANTAGONISTS” (Bayer Aktiengesellschaft, priority 2019, published 2023)
pIC50: −log10 of the molar value.

Columns and labels:
ADAMTS4 = molecular target: T1, ADAMTS4 (Homo sapiens, UniProt O75173); experiment: Selectivity assay for ADAMTS-7 modulators (FRET), ADAMTS4; format: biochemical; conditions: 50 nM enzyme (R&D 4307-AD), 1 μM Dabcyl/Edans FRET substrate, 120 min at 32° C.
T1 construct: purchased R&D 4307-AD
T1 sequence (O75173 213-685 limits assumed): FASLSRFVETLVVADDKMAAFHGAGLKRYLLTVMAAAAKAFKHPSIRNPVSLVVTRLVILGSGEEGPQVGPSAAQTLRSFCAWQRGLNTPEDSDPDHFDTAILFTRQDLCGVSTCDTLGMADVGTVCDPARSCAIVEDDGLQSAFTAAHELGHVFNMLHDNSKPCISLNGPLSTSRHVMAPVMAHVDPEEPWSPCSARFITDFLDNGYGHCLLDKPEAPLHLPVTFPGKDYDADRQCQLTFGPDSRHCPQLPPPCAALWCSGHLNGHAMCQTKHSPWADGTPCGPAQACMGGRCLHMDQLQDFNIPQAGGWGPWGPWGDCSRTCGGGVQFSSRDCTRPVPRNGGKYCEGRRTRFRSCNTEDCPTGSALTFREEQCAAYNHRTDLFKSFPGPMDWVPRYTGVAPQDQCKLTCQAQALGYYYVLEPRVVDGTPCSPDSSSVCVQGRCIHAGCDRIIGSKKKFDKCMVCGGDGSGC
Summary of the method: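 Enzyme in 50 mM Tris pH 7.5, 150 mM NaCl, 10 mM CaCl2, 0.05% Brij, preincubated with compound in DMSO; reaction started with FRET substrate. Fluorescence increase read after 120 min at 32° C; IC50 from percent inhibition versus compound concentration.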

[1] = molecular target: T2, Purified recombinant ADAMTS-7 (rat prodomain/human catalytic domain, SEQ ID No. 01 or 02) (Homo sapiens, UniProt Q9UKP4); experiment: Assay for ADAMTS-7 enzymatic activity (FRET substrate cleavage); format: biochemical; conditions: FRET substrate SEQ ID No. 11, 120 min at 32° C.; read-out: ADAMTS7-IC50
T2 construct: rat ADAMTS-7 signal peptide + prodomain (rat 1-217, Q1EHB3) (N); 2xStrep tag (C); 6xHis tag (C); made in house; host or cells: Expi293 cells
T2 sequence (Q9UKP4 237-537): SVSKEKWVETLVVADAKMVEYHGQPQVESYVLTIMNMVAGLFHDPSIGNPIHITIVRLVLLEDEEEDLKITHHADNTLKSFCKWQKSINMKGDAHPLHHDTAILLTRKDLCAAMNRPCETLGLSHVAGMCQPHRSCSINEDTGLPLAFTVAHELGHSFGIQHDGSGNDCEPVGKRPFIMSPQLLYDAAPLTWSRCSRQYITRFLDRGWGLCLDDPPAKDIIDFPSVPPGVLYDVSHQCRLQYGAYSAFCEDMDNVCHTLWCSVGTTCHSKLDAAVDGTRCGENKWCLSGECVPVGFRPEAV
Summary of the method: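 IC50 values were fitted from percent inhibition across test-compound concentrations. Fluorescence gain (ex 485, em 520 nm) reports cleavage of a thrombospondin-1 (275-289) FRET peptide with QXL520 quencher, after 120 min at 32 °C. The enzyme, about 20 nM, was in HEPES pH 8.0 buffer with NaCl, CaCl2, ZnCl2 and Brij.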

pIC50 (ADAMTS4)	pIC50 [1]	Compound
5.30	6.60	CC(C)(C)CC1(CNC(=O)c2cnn(-c3ccccc3)n2)NC(=O)NC1=O (stereo not drawn) [Example 44, ent-N-{[4-(2,2-dimethylpropyl)-2,5-dioxoimidazolidin-4-yl]methyl}-2-phenyl-2H-1,2,3-triazole-4-carboxamide]
6.11	7.85	O=C1NC(=O)C(CNC(=O)c2cnn(-c3ccc(F)c(Cl)c3)n2)(c2nccs2)N1 (single isomer, unassigned; ent-2) [Example 112, ent-2-(3-chloro-4-fluorophenyl)-N-{[2,5-dioxo-4-(1,3-thiazol-2-yl)imidazolidin-4-yl]methyl}-2H-1,2,3-triazole-4-carboxamide]
5.22	6.77	CC(C)C1(CNC(=O)c2cnn(-c3cccc(C#N)c3)n2)NC(=O)NC1=O (racemic) [Example 120, rac-2-(3-cyanophenyl)-N-[(4-isopropyl-2,5-dioxoimidazolidin-4-yl)methyl]-2H-1,2,3-triazole-4-carboxamide]
5.10	6.72	O=C1NC(=O)C(CNC(=O)c2cnn(-c3ccc(F)cc3)n2)(C2(F)CC2)N1 (racemic) [Example 154, rac-N-{[4-(1-fluorocyclopropyl)-2,5-dioxoimidazolidin-4-yl]methyl}-2-(4-fluorophenyl)-2H-1,2,3-triazole-4-carboxamide]
5.77	7.26	O=C1NC(=O)[C@](CNC(=O)c2coc(-c3ccc(F)cc3)n2)(C2CC2)N1 [Example 41, N-{[(4R)-4-cyclopropyl-2,5-dioxoimidazolidin-4-yl]methyl}-2-(4-fluorophenyl)-1,3-oxazole-4-carboxamide]
5.12	6.74	O=C1NC(=O)[C@](CNC(=O)c2cnn(-c3ccccc3F)n2)(C2CC2)N1 [Example 37, N-{[(4R)-4-cyclopropyl-2,5-dioxoimidazolidin-4-yl]methyl}-2-(2-fluorophenyl)-2H-1,2,3-triazole-4-carboxamide]
5.18	6.59	CC(C)(C)C1(CNC(=O)c2cnn(-c3cccc(F)c3)n2)NC(=O)NC1=O (racemic) [Example 4, rac-N-{[4-tert-butyl-2,5-dioxoimidazolidin-4-yl]methyl}-2-(3-fluorophenyl)-2H-1,2,3-triazole-4-carboxamide]
5.35	7.34	CC(C)C1(CNC(=O)c2cnn(-c3cccc(F)c3)n2)NC(=O)NC1=O (racemic) [Example 118, rac-2-(3-fluorophenyl)-N-[(4-isopropyl-2,5-dioxoimidazolidin-4-yl)methyl]-2H-1,2,3-triazole-4-carboxamide]
4.60	6.01	C[C@H](NC(=O)c1cnn(-c2ccccc2)n1)C1(C2CC2)NC(=O)NC1=O (stereo partly drawn) [Example 40, ent-N-((1S)-1-(4-Cyclopropyl-2,5-dioxoimidazolidin-4-yl)ethyl)-2-phenyl-2H-1,2,3-triazole-4-carboxamide]
5.82	7.43	O=C1NC(=O)C(CNC(=O)c2cnn(-c3ccc(F)cc3)n2)(C2CCOCC2)N1 (single isomer, unassigned; ent-2) [Example 81]
5.00	6.89	O=C1NC(=O)C(CNC(=O)c2cnn(-c3ccccc3)n2)(C2CCOCC2)N1 (racemic) [Example 61, rac-N-[(4-(oxan-4-yl)-2,5-dioxoimidazolidin-4-yl)methyl]-2-phenyl-2H-1,2,3-triazole-4-carboxamide]
4.17	6.06	CS(=O)(=O)c1ccc(-n2ncc(C(=O)NC[C@@]3(C4CC4)NC(=O)NC3=O)n2)cc1 [Example 28, N-{[(4R)-4-cyclopropyl-2,5-dioxoimidazolidin-4-yl]methyl}-2-[4-(methylsulfonyl)phenyl]-2H-1,2,3-triazole-4-carboxamide]
4.84	6.58	CC(C)C1(CNC(=O)c2cnn(-c3ccccc3)n2)NC(=O)NC1=O (racemic) [Example 48, rac-N-[(2,5-dioxo-4-(propan-2-yl)imidazolidin-4-yl)methyl]-2-phenyl-2H-1,2,3-triazole-4-carboxamide]
5.70	7.42	CC1(C)CC1C1(CNC(=O)c2cnn(-c3ccccc3)n2)NC(=O)NC1=O (racemic) [Example 150, ent-N-({4-[rac-2,2-dimethylcyclopropyl]-2,5-dioxoimidazolidin-4-yl}methyl)-2-phenyl-2H-1,2,3-triazole-4-carboxamide]
5.19	6.60	O=C1NC(=O)C(CNC(=O)c2cnn(-c3ccccc3)n2)(C2CCCOC2)N1 (single isomer, unassigned; dia2) [Example 85, dia2-N-{[4-(-oxan-3-yl)-2,5-dioxoimidazolidin-4-yl]methyl}-2-phenyl-2H-1,2,3-triazole-4-carboxamide]
5.85	7.24	O=C1NC(=O)[C@](CNC(=O)c2cnn(-c3ccc(Br)cc3)n2)(C2CC2)N1 [Example 33, 2-(4-bromophenyl)-N-{[(4R)-4-cyclopropyl-2,5-dioxoimidazolidin-4-yl]methyl}-2H-1,2,3-triazole-4-carboxamide]
5.64	7.89	CC(C)C1(CNC(=O)c2cnn(-c3cccc(F)c3)n2)NC(=O)NC1=O (single isomer, unassigned; ent-2) [Example 119, ent-2-(3-fluorophenyl)-N-[(4-isopropyl-2,5-dioxoimidazolidin-4-yl)methyl]-2H-1,2,3-triazole-4-carboxamide]
4.77	6.49	O=C1NC(=O)[C@](CNC(=O)c2cnn(-c3ccc(F)cc3Cl)n2)(C2CC2)N1 [Example 151, 2-(2-chloro-4-fluorophenyl)-N-{[(4R)-4-cyclopropyl-2,5-dioxoimidazolidin-4-yl]methyl}-2H-1,2,3-triazole-4-carboxamide]
4.82	7.05	CCCCC1(CNC(=O)c2cnn(-c3ccccc3)n2)NC(=O)NC1=O (racemic) [Example 51, rac-N-[(4-butyl-2,5-dioxoimidazolidin-4-yl)methyl]-2-phenyl-2H-1,2,3-triazole-4-carboxamide]
4.89	6.70	CCC1(CNC(=O)c2cnn(-c3ccc(F)cc3)n2)NC(=O)NC1=O (racemic) [Example 162, rac-N-[(4-ethyl-2,5-dioxoimidazolidin-4-yl)methyl]-2-(4-fluorophenyl)-2H-1,2,3-triazole-4-carboxamide]
6.51	8.15	O=C1NC(=O)C(CNC(=O)c2cnn(-c3ccc(F)c(F)c3)n2)(c2nccs2)N1 (single isomer, unassigned; ent-2) [Example 107, ent-2-(3,4-difluorophenyl)-N-{[2,5-dioxo-4-(1,3-thiazol-2-yl)imidazolidin-4-yl]methyl}-2H-1,2,3-triazole-4-carboxamide]
5.51	7.13	O=C1NC(=O)[C@](CNC(=O)c2cnn(-c3cccc(F)c3F)n2)(C2CC2)N1 [Example 35, N-{[(4R)-4-cyclopropyl-2,5-dioxoimidazolidin-4-yl]methyl}-2-(2,3-difluorophenyl)-2H-1,2,3-triazole-4-carboxamide]
5.35	7.52	O=C1NC(=O)C(CNC(=O)c2cnn(-c3ccc(F)cc3)n2)(c2cccnc2)N1 (racemic) [Example 23, rac-N-{[2,5-dioxo-4-(pyridin-3-yl)imidazolidin-4-yl]methyl}-2-(4-fluorophenyl)-2H-1,2,3-triazole-4-carboxamide]
5.55	7.89	CC(C)C1(CNC(=O)c2cnn(-c3ccc(Cl)c(F)c3)n2)NC(=O)NC1=O (racemic) [Example 124, rac-2-(4-chloro-3-fluorophenyl)-N-[(4-isopropyl-2,5-dioxoimidazolidin-4-yl)methyl]-2H-1,2,3-triazole-4-carboxamide]
5.62	7.41	O=C1NC(=O)C(CNC(=O)c2cnn(-c3ccc(F)cc3)n2)(c2nccs2)N1 (racemic) [Example 113, rac-N-{[2,5-dioxo-4-(1,3-thiazol-2-yl)imidazolidin-4-yl]methyl}-2-(4-fluorophenyl)-2H-1,2,3-triazole-4-carboxamide]
